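How tested: cells in 96-well plates exposed to compound for 48 hours at five concentrations. Here, GI50 denotes the concentration required for 50% inhibition of growth.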 Activity calls are given as the source filed them. Cut-off read from the data, not from the text of the source: active = GI50 up to about 1.1 µM and inactive = higher.
Experiments:
Assay in all cases: growth of human tumour cells (NCI), 48 h
ACHN = system: ACHN
K562 = system: K562
DLD-1 = system: DLD-1
OVCAR-3 = system: OVCAR-3
SW-620 = system: SW-620
SF-295 = system: SF-295
SN12C = system: SN12C
OVCAR-8 = system: OVCAR-8
SNB-75 = system: SNB-75
786-0 = system: 786-0
Malme-3M = system: Malme-3M
OVCAR-5 = system: OVCAR-5
HOP-18 = system: HOP-18
NCI-H23 = system: NCI-H23
HCC 2998 = system: HCC 2998
NCI-H460 = system: NCI-H460
UACC-62 = system: UACC-62
RXF 393 = system: RXF 393
CCRF-CEM = system: CCRF-CEM
MOLT-4 = system: MOLT-4
M19-MEL = system: M19-MEL
UO-31 = system: UO-31
U-251 = system: U-251
EKVX = system: EKVX
HCT-116 = system: HCT-116
HT-29 = system: HT-29
HOP-92 = system: HOP-92
DMS-273 = system: DMS-273
HOP-62 = system: HOP-62
IGROV-1 = system: IGROV-1
HL-60 = system: HL-60
SF-268 = system: SF-268
SF-539 = system: SF-539
UACC-257 = system: UACC-257
SNB-19 = system: SNB-19
SK-MEL-5 = system: SK-MEL-5
DMS-114 = system: DMS-114
SK-MEL-28 = system: SK-MEL-28
OVCAR-4 = system: OVCAR-4
RPMI-8226 = system: RPMI-8226
CAKI-1 = system: CAKI-1
TK-10 = system: TK-10
A498 = system: A498
HCT-15 = system: HCT-15
M14 = system: M14
SK-MEL-2 = system: SK-MEL-2
SK-OV-3 = system: SK-OV-3
KM-20L2 = system: KM-20L2
A549 = system: A549
XF498 = system: XF498
SR = system: SR
LOX IMVI = system: LOX IMVI
NCI-H522 = system: NCI-H522
LXFL 529 = system: LXFL 529
KM12 = system: KM12
COLO 205 = system: COLO 205
SNB-78 = system: SNB-78
NCI-H226 = system: NCI-H226

Clc1cccc(C2N3CCCCC3[C@@H]3c4[nH]c5ccccc5c4CCN23)c1 (some centres undefined)
GI50 (ACHN): 24.2 µM (inactive) | GI50 (K562): 23.1 µM (inactive) | GI50 (DLD-1): 30.3 µM (inactive) | GI50 (OVCAR-3): 34.8 µM (inactive) | GI50 (SW-620): 44.4 µM (inactive) | GI50 (SF-295): 51.1 µM (inactive) | GI50 (SN12C): 13.6 µM (inactive) | GI50 (OVCAR-8): 41.4 µM (inactive) | GI50 (SNB-75): 32.8 µM (inactive) | GI50 (786-0): 32.6 µM (inactive) | GI50 (Malme-3M): 18.3 µM (inactive) | GI50 (OVCAR-5): 21 µM (inactive) | GI50 (HOP-18): > 100 µM (inactive) | GI50 (NCI-H23): 22 µM (inactive) | GI50 (HCC 2998): 31.9 µM (inactive) | GI50 (NCI-H460): 22.7 µM (inactive) | GI50 (UACC-62): 15.6 µM (inactive) | GI50 (RXF 393): 27 µM (inactive) | GI50 (CCRF-CEM): 19.4 µM (inactive) | GI50 (MOLT-4): 23.1 µM (inactive) | GI50 (M19-MEL): 20.1 µM (inactive) | GI50 (UO-31): 24.9 µM (inactive) | GI50 (U-251): 29.2 µM (inactive) | GI50 (EKVX): 56 µM (inactive) | GI50 (HCT-116): 17.1 µM (inactive) | GI50 (HT-29): 18.2 µM (inactive) | GI50 (HOP-92): 62.5 µM (inactive) | GI50 (DMS-273): 30.1 µM (inactive) | GI50 (HOP-62): 46.9 µM (inactive) | GI50 (IGROV-1): 50.8 µM (inactive) | GI50 (HL-60): 18.7 µM (inactive) | GI50 (SF-268): 33.1 µM (inactive) | GI50 (SF-539): 21.1 µM (inactive) | GI50 (UACC-257): 30.5 µM (inactive) | GI50 (SNB-19): 55 µM (inactive) | GI50 (SK-MEL-5): 18 µM (inactive) | GI50 (DMS-114): 20.6 µM (inactive) | GI50 (SK-MEL-28): 22.8 µM (inactive) | GI50 (OVCAR-4): 33.5 µM (inactive) | GI50 (RPMI-8226): 29 µM (inactive) | GI50 (CAKI-1): 45 µM (inactive) | GI50 (TK-10): 40.8 µM (inactive) | GI50 (A498): 31.2 µM (inactive) | GI50 (HCT-15): 48.2 µM | GI50 (M14): 27.9 µM (inactive) | GI50 (SK-MEL-2): 19.8 µM (inactive) | GI50 (SK-OV-3): 46.9 µM (inactive) | GI50 (KM-20L2): 56.8 µM (inactive) | GI50 (A549): 43.9 µM (inactive) | GI50 (XF498): 20.9 µM (inactive)

N#CCCN(CCC#N)C(=O)c1cccc(C(=O)N(CCC#N)CCC#N)c1
GI50 (ACHN): > 100 µM (inactive) | GI50 (K562): > 100 µM (inactive) | GI50 (DLD-1): > 88.9 µM (inactive) | GI50 (OVCAR-3): > 100 µM (inactive) | GI50 (SW-620): 13.4 µM (inactive) | GI50 (SF-295): > 77.8 µM (inactive) | GI50 (SR): > 44.2 µM (inactive) | GI50 (LOX IMVI): 16.4 µM (inactive) | GI50 (SN12C): > 43.7 µM (inactive) | GI50 (OVCAR-8): > 50 µM (inactive) | GI50 (SNB-75): > 44.6 µM (inactive) | GI50 (786-0): > 100 µM (inactive) | GI50 (NCI-H522): > 100 µM (inactive) | GI50 (Malme-3M): 72.1 µM (inactive) | GI50 (OVCAR-5): > 100 µM (inactive) | GI50 (LXFL 529): 14.1 µM (inactive) | GI50 (KM12): > 93.3 µM (inactive) | GI50 (NCI-H23): > 41.9 µM (inactive) | GI50 (HCC 2998): > 85.1 µM (inactive) | GI50 (NCI-H460): > 47.5 µM (inactive) | GI50 (UACC-62): > 37.3 µM (inactive) | GI50 (COLO 205): > 70.5 µM (inactive) | GI50 (RXF 393): 4.07 µM (inactive) | GI50 (CCRF-CEM): > 100 µM (inactive) | GI50 (MOLT-4): > 100 µM (inactive) | GI50 (M19-MEL): > 100 µM (inactive) | GI50 (UO-31): > 100 µM (inactive) | GI50 (U-251): > 45.8 µM (inactive) | GI50 (EKVX): > 46.2 µM (inactive) | GI50 (HCT-116): > 55.6 µM (inactive) | GI50 (HT-29): 19.1 µM (inactive) | GI50 (HOP-92): > 58.7 µM (inactive) | GI50 (DMS-273): > 100 µM (inactive) | GI50 (HOP-62): > 100 µM (inactive) | GI50 (SNB-78): > 100 µM (inactive) | GI50 (IGROV-1): > 100 µM (inactive) | GI50 (HL-60): > 55.2 µM (inactive) | GI50 (SF-268): > 100 µM (inactive) | GI50 (SF-539): > 40.9 µM (inactive) | GI50 (UACC-257): > 100 µM (inactive) | GI50 (SNB-19): > 61 µM (inactive) | GI50 (SK-MEL-5): > 56.5 µM (inactive) | GI50 (DMS-114): > 100 µM (inactive) | GI50 (SK-MEL-28): 7.45 µM (inactive) | GI50 (OVCAR-4): > 100 µM (inactive) | GI50 (RPMI-8226): > 50.4 µM (inactive) | GI50 (CAKI-1): > 100 µM (inactive) | GI50 (A498): > 100 µM (inactive) | GI50 (HCT-15): > 100 µM | GI50 (M14): > 69 µM (inactive) | GI50 (SK-MEL-2): > 100 µM (inactive) | GI50 (SK-OV-3): > 100 µM (inactive) | GI50 (KM-20L2): > 42.8 µM (inactive) | GI50 (A549): > 69.7 µM (inactive) | GI50 (XF498): > 100 µM (inactive)

CSC1(C)CC2C(CC1N1CCCCC1)C2(C)C (centres undefined)
GI50 (ACHN): > 100 µM (inactive) | GI50 (K562): > 100 µM (inactive) | GI50 (DLD-1): > 100 µM (inactive) | GI50 (OVCAR-3): > 100 µM (inactive) | GI50 (SF-295): > 100 µM (inactive) | GI50 (SN12C): > 100 µM (inactive) | GI50 (OVCAR-8): > 100 µM (inactive) | GI50 (SNB-75): > 100 µM (inactive) | GI50 (786-0): > 100 µM (inactive) | GI50 (Malme-3M): > 100 µM (inactive) | GI50 (OVCAR-5): > 100 µM (inactive) | GI50 (LXFL 529): > 100 µM (inactive) | GI50 (HOP-18): > 100 µM (inactive) | GI50 (KM12): > 100 µM (inactive) | GI50 (NCI-H23): > 100 µM (inactive) | GI50 (HCC 2998): > 100 µM (inactive) | GI50 (NCI-H460): > 100 µM (inactive) | GI50 (COLO 205): > 100 µM (inactive) | GI50 (CCRF-CEM): > 100 µM (inactive) | GI50 (MOLT-4): > 100 µM (inactive) | GI50 (M19-MEL): > 100 µM (inactive) | GI50 (UO-31): > 100 µM (inactive) | GI50 (NCI-H226): > 100 µM (inactive) | GI50 (U-251): > 100 µM (inactive) | GI50 (HCT-116): > 100 µM (inactive) | GI50 (HT-29): > 100 µM (inactive) | GI50 (HOP-92): > 100 µM (inactive) | GI50 (DMS-273): > 100 µM (inactive) | GI50 (SNB-78): > 100 µM (inactive) | GI50 (IGROV-1): > 100 µM (inactive) | GI50 (HL-60): > 100 µM (inactive) | GI50 (SF-268): > 100 µM (inactive) | GI50 (SF-539): > 100 µM (inactive) | GI50 (UACC-257): > 100 µM (inactive) | GI50 (SK-MEL-28): > 100 µM (inactive) | GI50 (OVCAR-4): > 100 µM (inactive) | GI50 (RPMI-8226): > 100 µM (inactive) | GI50 (TK-10): > 100 µM (inactive) | GI50 (HCT-15): > 100 µM | GI50 (M14): > 100 µM (inactive) | GI50 (SK-MEL-2): > 100 µM (inactive) | GI50 (SK-OV-3): > 100 µM (inactive) | GI50 (A549): > 100 µM (inactive) | GI50 (XF498): > 100 µM (inactive)
